≈ marks a conversion by molar mass, not a printed value.
Test: Solubility in ethanol
Format: physicochemical
Details: organic solvent or mixture
Protocol: In preferred embodiments, the solvent is ethanol. […] Similarly, preferred kinase inhibitors, such as apatinib, axitinib, cabozantinib, cediranib, crenolanib, foretinib, lenvatinib, linifanib, masitinib, motesanib, nintedanib, pazopanib, pegaptanib, regorafenib, semaxanib, sorafenib, sunitinib, tivozanib, toceranib, vandetanib, vatalanib, bafetinib, bosutinib, dasatinib, imatinib, nilotinib, ponatinib, radotinib, and SU6656, are generally soluble in ethanol, e.g., at 1.0 mg/mL or higher.

solubility: ~3300 µg/mL (≈ 7.1 mM)
SMILES: CNC(=O)c1cc(Oc2ccc(NC(=O)Nc3ccc(Cl)c(C(F)(F)F)c3)cc2)ccn1 [sorafenib]
